Assay results as given in patent US20060035889A1, “Treatment for methamphetamine addiction and reduction of methamphetamine use using serotonin antagonists” (priority 2004, published 2006).

What was measured:
ventral pallidal neurons = assay: Electrophysiology of ventral pallidal neurons, i.v. METH dose-response in chloral hydrate-anesthetized rats; type: in vivo, rat
Procedure: Based on the biochemical results and because the ventral pallidum contains one of the highest concentrations of 5-HT in the brain, electrophysiological evaluations of this region in rats behaviorally sensitized to METH were conducted (with a 5-day once daily treatment of 2.5 mg/kg). The acute challenge was intravenously administered METH (via a tail vein cannula) as previously used by T. C. Napier's lab ^e.g., [34] where the drug is given in a cumulative dosing fashion such that each dose, administered in 2 min-intervals, essentially doubles the previous dose. METH was tested using a range of 0.06-4.0 mg/kg in saline vehicle. […] Moreover, this approach establishes if systemic administration of METH, in doses that include those producing behavioral sensitization, are sufficient promote sensitized cellular responding and thus allows for direct comparisons of cellular responding to behavioral outcomes. After a 3-day withdrawal, the ability of intravenously administered METH or 1-(2,5-dimethoxy-4-iodophenyl)-2-aminopropane (DOI) to increase ventral pallidal cell firing was enhanced in chloral hydrate-anesthetized rats, as shown by a leftward shift in the dose-response curve with a […] and an increase in response efficacy for both agonists (FIG. 16) and this occurred without any changes in the portion of neurons showing a rate increase or decrease to the acute METH challenge.
Electrophysiological assessment of the ventral pallidum was also conducted 30 days after repeated METH. […] For each experiment, an i.v. METH dose-response curve (METH was tested using a range of 0.06-2.0 mg/kg in saline vehicle) was generated for one ventral pallidal neuron per rat at 30 days withdrawal from repeated METH. Based on the analysis of curves where there was an excitatory effect of i.v. METH on ventral pallidal neurons (171 animals), there was a diminished excitatory effect of i.v. METH in the ventral pallidum of rats that were pretreated with METH only. This is illustrated by both the curves and corresponding Emax data in FIG. 17. This decrease only at long-term withdrawal mirrors the reduction seen in pallidal pCREB only after 14, but not at 3 day withdrawal from repeated METH (see Example III).

METH-conditioned rats = assay: METH-induced conditioned place preference (CPP) with simultaneous motor sensitization; type: in vivo, rat; details: single home cage injection 0.03, 0.1 or 1.0 mg/kg SDZ SER 082 24 h before test (FIG. 13)
Description: The CPP box (Accuscan, Columbus, Ohio) consists of three Plexiglas compartments, each with distinct visual and tactile cues (on one side, patterned floor with object attached and horizontally striped wall; on the opposite side, smooth floor with no object and vertically striped walls; center—uniformly white floor and walls). The center compartment can be separated from the left and right compartments by removable guillotine doors. Motor activity in three dimensional space, and time spent, in each compartment is detected by two sets of photobeams set at different heights from the floor. Drug conditioning is performed by administering METH to the rat while it is in one compartment, and on the alternating day, saline is administered while the rat is confined to the opposite compartment. Confinement was achieved by blocking access to other compartments using the guillotine door. The center compartment is not seen by the rat during conditioning, and all conditioning sessions last for 45 min.
The inventors have determined that the number of METH-pairings, and the dose of METH, dictate the strength of the drug-environment association (i.e., the magnitude of salience attribution). The test for CPP is determined in a METH-free state (i.e., at least 48 hr after that last METH pairing), at which time the rats are placed in the center compartment and allowed free access to all compartments for 30 min, and the time spent in each compartment is the index of preference. The inventors have determined that the number of METH-pairings, and the dose of METH, dictate the strength of the drug-environment association (i.e., the magnitude of salience attribution) and thus the amount of time spent in the compartment previously paired with METH (FIG. 7), as well as persistence of this effect (i.e., how long it lasts; FIG. 8A). METH-induced motor sensitization can be assessed in several ways, including assessing the capacity of the rat to express an enhanced motor response to an acute METH challenge (FIGS. 9 & 10A).
To efficiently apply this approach to testing of 5-HT2A/2C antagonists, we determined that single pairing protocols of the CPP paradigm can be used to predict efficacy outcomes of 5-HT2A/2C antagonists in long-term tests on these drugs evaluating their capacity to nullify the persistent enhanced salience induced by METH. […] Thus, these protocols should help predict the capacity of novel therapeutic targets to halt a common problem of drug relapse, i.e., the ability of re-exposure to drugs like METH to immediately reinstate their abuse.

5-HT1A = target: T1, 5-HT1A (Homo sapiens, UniProt P08908); details: read-out: receptor affinity (Ki) 5-HT1A; cited from earlier work
T1 sequence (P08908 1-422): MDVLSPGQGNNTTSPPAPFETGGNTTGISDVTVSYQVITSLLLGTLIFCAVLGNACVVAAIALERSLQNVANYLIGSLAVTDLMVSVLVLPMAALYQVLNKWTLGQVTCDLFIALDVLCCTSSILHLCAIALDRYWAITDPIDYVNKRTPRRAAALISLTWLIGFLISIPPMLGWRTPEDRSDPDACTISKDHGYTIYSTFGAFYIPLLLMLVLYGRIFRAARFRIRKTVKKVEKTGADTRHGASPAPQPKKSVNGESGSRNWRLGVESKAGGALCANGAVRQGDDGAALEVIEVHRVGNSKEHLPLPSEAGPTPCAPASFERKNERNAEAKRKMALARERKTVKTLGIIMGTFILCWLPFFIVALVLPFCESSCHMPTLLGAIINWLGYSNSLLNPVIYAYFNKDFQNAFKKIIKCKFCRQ

5-HT2A = 5-HT2A (Homo sapiens, UniProt P28223); details: read-out: receptor affinity (Ki) 5-HT2A; cited from earlier work
Sequence of 5-HT2A (P28223 whole entry, species assumed): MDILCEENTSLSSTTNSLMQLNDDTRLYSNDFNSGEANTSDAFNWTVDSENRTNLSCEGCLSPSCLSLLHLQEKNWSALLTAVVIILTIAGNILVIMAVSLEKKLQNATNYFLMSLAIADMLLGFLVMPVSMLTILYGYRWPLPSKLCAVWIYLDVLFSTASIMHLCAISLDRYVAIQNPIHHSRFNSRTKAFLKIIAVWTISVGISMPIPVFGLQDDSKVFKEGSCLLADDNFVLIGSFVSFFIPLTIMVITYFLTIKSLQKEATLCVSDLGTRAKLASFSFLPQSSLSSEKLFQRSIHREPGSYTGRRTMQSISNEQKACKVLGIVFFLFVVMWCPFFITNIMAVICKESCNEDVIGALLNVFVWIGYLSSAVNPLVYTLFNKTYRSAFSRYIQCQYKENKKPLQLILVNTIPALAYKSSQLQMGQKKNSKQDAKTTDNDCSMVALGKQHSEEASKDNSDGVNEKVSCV

5-HT2C = target: T2, 5-HT2C (Homo sapiens, UniProt P28335); details: read-out: receptor affinity (Ki) 5-HT2C; cited from earlier work
T2 sequence (P28335 33-458): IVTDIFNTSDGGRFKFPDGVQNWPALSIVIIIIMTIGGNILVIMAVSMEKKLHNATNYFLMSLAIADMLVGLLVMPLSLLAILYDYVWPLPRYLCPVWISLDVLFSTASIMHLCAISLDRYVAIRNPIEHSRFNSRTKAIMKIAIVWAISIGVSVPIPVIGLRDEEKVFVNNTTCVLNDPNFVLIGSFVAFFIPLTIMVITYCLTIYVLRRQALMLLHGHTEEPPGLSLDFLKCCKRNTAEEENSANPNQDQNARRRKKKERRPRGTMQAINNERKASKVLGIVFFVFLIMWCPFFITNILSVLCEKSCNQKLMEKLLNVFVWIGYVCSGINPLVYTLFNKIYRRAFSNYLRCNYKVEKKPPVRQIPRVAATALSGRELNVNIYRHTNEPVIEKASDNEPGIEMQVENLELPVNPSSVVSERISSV

5-HT3 = target: T3, 5-HT3 (Homo sapiens, UniProt P46098); details: read-out: receptor affinity (Ki) 5-HT3; cited from earlier work
T3 sequence (P46098 24-478): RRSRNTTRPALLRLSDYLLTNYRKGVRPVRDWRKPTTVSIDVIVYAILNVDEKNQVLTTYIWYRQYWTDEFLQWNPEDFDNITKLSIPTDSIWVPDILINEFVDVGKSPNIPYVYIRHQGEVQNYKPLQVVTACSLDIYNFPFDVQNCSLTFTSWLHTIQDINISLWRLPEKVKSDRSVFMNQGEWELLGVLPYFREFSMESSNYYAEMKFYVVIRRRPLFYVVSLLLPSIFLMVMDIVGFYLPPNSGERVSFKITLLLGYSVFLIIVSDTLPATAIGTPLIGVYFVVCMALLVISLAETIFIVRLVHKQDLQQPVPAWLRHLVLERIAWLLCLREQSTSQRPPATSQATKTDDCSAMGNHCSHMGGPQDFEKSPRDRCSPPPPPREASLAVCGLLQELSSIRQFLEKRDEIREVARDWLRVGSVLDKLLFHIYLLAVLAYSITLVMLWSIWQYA

D1 = D1 (Homo sapiens, UniProt P21728); details: read-out: receptor affinity (Ki) D1; cited from earlier work
Sequence of D1 (P21728 whole entry): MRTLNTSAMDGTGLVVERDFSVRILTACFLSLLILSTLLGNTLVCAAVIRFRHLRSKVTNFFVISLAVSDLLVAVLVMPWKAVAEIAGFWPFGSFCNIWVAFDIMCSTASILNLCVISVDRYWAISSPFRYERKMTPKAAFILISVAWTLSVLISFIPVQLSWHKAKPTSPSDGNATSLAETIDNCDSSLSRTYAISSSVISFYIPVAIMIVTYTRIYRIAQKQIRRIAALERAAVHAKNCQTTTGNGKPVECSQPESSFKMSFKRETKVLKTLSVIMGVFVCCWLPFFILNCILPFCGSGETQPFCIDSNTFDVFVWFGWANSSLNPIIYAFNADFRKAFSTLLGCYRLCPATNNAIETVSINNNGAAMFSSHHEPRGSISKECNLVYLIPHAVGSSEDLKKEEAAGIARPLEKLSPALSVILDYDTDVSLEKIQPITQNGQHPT

D2 = D2 (Homo sapiens, UniProt P14416); details: read-out: receptor affinity (Ki) D2; cited from earlier work
Sequence of D2 (P14416 whole entry): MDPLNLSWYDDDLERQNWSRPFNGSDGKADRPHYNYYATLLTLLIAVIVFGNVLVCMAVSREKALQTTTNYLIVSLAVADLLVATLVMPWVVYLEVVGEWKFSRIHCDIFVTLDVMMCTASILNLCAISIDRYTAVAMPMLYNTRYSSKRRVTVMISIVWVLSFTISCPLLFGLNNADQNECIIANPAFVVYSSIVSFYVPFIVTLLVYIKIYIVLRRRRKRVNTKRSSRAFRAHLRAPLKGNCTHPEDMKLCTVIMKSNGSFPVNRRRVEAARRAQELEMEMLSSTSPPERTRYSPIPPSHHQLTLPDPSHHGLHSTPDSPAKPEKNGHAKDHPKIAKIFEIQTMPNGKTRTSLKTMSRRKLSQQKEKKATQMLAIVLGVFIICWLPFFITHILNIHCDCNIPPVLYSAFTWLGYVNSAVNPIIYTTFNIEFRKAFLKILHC

a = details: read-out: receptor affinity (Ki) a; cited from earlier work
[1] = system: cocaine seeking behaviors; details: rats, cited from earlier work; for maintenance of cocaine self-administration: 0.25-1 mg/kg, cocaine 0.5 mg/kg/infusion iv
METH-sensitized rats = assay: Reversal of METH-induced behavioral sensitization by 5-HT2A/2C antagonists (motor activity after acute METH challenge); type: in vivo, rat; details: ketanserin 1 mg/kg once daily M-F 3 weeks; 1 mg/kg METH challenge w/d day 30/31
Description: Automation of observational evaluations was accomplished using computerized small animal monitors (AccuScan Instr. Inc., Columbus, Ohio). […] One feature of drug-induced behavioral sensitization is heterogeneity of motor responses and the AccuScan monitors quantify numerous behavioral indices. This is a critical point for the motor profile is exquisitely related to METH dose, the drug history of the rat and observation time. After 3- or 31-days of withdrawal from repeated METH injections, rats were allowed to achieve baseline motor activity with a 30 min habituation period, challenged with 1 mg/kg sc METH and monitored for 90 min.
Multiple 5-HT2A/2C antagonists with differing pharmacological profiles were tested for their ability to ameliorate METH-induced behavioral sensitization when administered after sensitization has developed. […] The doses were selected based on the antagonists' ability to block 5-HT2A- and 5-HT2C-mediated activity and their pharmacokinetic profiles.

[2] = system: cocaine-induced behavioral sensitization; details: given in acute withdrawal period from cocaine dosing; cited from earlier work

With `CN[C@@H](C)Cc1ccccc1` [METH, Methamphetamine] the “Emax of Firing Rate Increases of Acute Meth” value (ventral pallidal neurons; repeated METH days 1-5, then vehicle, P < 0.05 vs saline + vehicle) was 161% ± 16% (n = 11).
In the case of `CN1CCC2CN3CCc4cccc(c43)C2C1` (stereo not drawn) [SDZ SER 082, 4,5,7a,8,9,10,11,11 a,-octahydro-7H-10-methylindolo[1,7,bc][2,6]-napthyridine], the “METH-induced CPP after single pairing of 1.0 METH” value (METH-conditioned rats) is listed as “reverses METH-induced CPP in a dose-dependent fashion”, the Ki (5-HT1A) is listed as 800 nM and the Ki (5-HT2A) is listed as 600 nM. For the same compound, the Ki (5-HT2C) was 15 nM, the Ki (5-HT3) was over 1000 nM and the Ki (D1) was over 1000 nM. For the same compound, the Ki (D2) was over 1000 nM, the Ki (a) was over 1000 nM and the “maintenance of cocaine self-administration” value [1] was “Neither SR 46349B (0.25-1 mg/kg) nor SDZ SER 082 (0.25-1 mg/kg) altered”. For the same compound, the “cue- and cocaine priming-induced reinstatement” value ([1]; cocaine priming 10 mg/kg ip or cue) was “failed to alter”.
In the case of `CN(C)CCO/N=C(/C=C/c1ccc(O)cc1)c1ccccc1F.CN(C)CCO/N=C(/C=C/c1ccc(O)cc1)c1ccccc1F.O=C(O)/C=C/C(=O)O` [SR 46349B], the “maintenance of cocaine self-administration” value [1] is listed as “Neither SR 46349B (0.25-1 mg/kg) nor SDZ SER 082 (0.25-1 mg/kg) altered”.
With `O=C(c1ccc(F)cc1)C1CCN(CCn2c(=O)[nH]c3ccccc3c2=O)CC1` [ketanserin] the “effect on horizontal activity and vertical movements in METH-pretreated group” value (METH-sensitized rats) was “appeared to potentiate the effect”, the “locomotor effects on saline-pretreated animals (acute METH challenge)” value (METH-sensitized rats) was “did not produce any locomotor effects” and the “Emax of Firing Rate Increases of Acute Meth” value (ventral pallidal neurons; METH days 1-5, then antagonist, tested 31 days after last METH) was 177% ± 18% (n = 4). For the same compound, the “established behavioral sensitization to cocaine” value [2] was “reverse the established behavioral sensitization”.
For `CN1CCN2c3ccccc3Cc3ccccc3C2C1` (stereo not drawn) [mianserin], the “established behavioral sensitization to cocaine” value [2] is given as “reverse the established behavioral sensitization”.
For `Cc1nccn1CC1CCc2c(c3ccccc3n2C)C1=O` (stereo not drawn) [ondansetron], the “established behavioral sensitization to cocaine” value [2] is listed as “reverse the established behavioral sensitization”.
